In the supplement of paper PMC10307832:

How the values were obtained:
Assay in all cases: relative viability (nuclei count vs DMSO), 5 days (fraction); higher = more cells survive
LCLC-103H = system: LCLC-103H
Summary of the method: (§1)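 Lung cancer cell lines in 1536-well plates were dosed by pin tool the day after seeding, either with one drug alone or with a fixed anchor-drug dose plus five library-drug doses (not always all listed) in √10 steps. After 5 days, cells were fixed and their nuclei stained in one step (final 0.05% Triton X-100, 1% formaldehyde, 1 ug/ml Hoechst), then counted on 4× images. Relative viability is the nuclei count in treated wells divided by that in vehicle wells. Values are medians of duplicate plates.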

COR-L 105 = system: COR-L 105
Summary of the method: as §1

NCI-H522 = system: NCI-H522
Summary of the method: as §1

NCI-H1915 = system: NCI-H1915
Summary of the method: as §1

H3255 = system: H3255
Summary of the method: as §1

NCI-H2087 = system: NCI-H2087
Summary of the method: as §1

NCI-H520 = system: NCI-H520
Summary of the method: as §1

NCI-H2170 = system: NCI-H2170
Summary of the method: as §1

A-427 = system: A-427
Summary of the method: as §1

SK-MES-1 = system: SK-MES-1
Summary of the method: as §1

SW 1573 = system: SW 1573
Summary of the method: as §1

HCC-827 = system: HCC-827
Summary of the method: as §1

NCI-H2023 = system: NCI-H2023
Summary of the method: as §1

NCI-H1793 = system: NCI-H1793
Summary of the method: as §1

NCI-H358 = system: NCI-H358
Summary of the method: as §1

NCI-H1993 = system: NCI-H1993
Summary of the method: as §1

NCI-H1975 = system: NCI-H1975
Summary of the method: as §1

NCI-H1792 = system: NCI-H1792
Summary of the method: as §1

NCI-H1944 = system: NCI-H1944
Summary of the method: as §1

LOU-NH91 = system: LOU-NH91
Summary of the method: as §1

HCC-44 = system: HCC-44
Summary of the method: as §1

LXF-289 = system: LXF-289
Summary of the method: as §1

SW 900 = system: SW 900
Summary of the method: as §1

With `Cc1csc(=NC2CCCCC2)n1/N=C/c1ccc(O)c(O)c1O` [MIM1] + CC(=O)Nc1cccc(-n2c(=O)n(C3CC3)c(=O)c3c(Nc4ccc(I)cc4F)n(C)c(=O)c(C)c32)c1 [Trametinib] (partner 0.02 µM) the relative viability (LCLC-103H; first compound 0.2 µM) was 0.662, the relative viability (LCLC-103H; first compound 0.6325 µM) was 0.687 and the relative viability (LCLC-103H; first compound 2 µM) was 0.694. For the same molecule, the relative viability (LCLC-103H; first compound 6.325 µM) was 0.669, the relative viability (LCLC-103H; first compound 20 µM) was 0.394 and the relative viability (COR-L 105; first compound 0.2 µM) was 0.45. For the same molecule, the relative viability (COR-L 105; first compound 0.6325 µM) was 0.548, the relative viability (COR-L 105; first compound 2 µM) was 0.44 and the relative viability (COR-L 105; first compound 6.325 µM) was 0.406. It also gave a relative viability (COR-L 105; first compound 20 µM) of 0.439, a relative viability (NCI-H522; first compound 0.2 µM) of 0.727 and a relative viability (NCI-H522; first compound 0.6325 µM) of 0.654. For the same molecule, the relative viability (NCI-H522; first compound 2 µM) was 0.834, the relative viability (NCI-H522; first compound 6.325 µM) was 0.897 and the relative viability (NCI-H522; first compound 20 µM) was 0.675. For the same molecule, the relative viability (NCI-H1915; first compound 0.2 µM) was 0.31, the relative viability (NCI-H1915; first compound 0.6325 µM) was 0.27 and the relative viability (NCI-H1915; first compound 2 µM) was 0.279. It also gave a relative viability (NCI-H1915; first compound 6.325 µM) of 0.314, a relative viability (NCI-H1915; first compound 20 µM) of 0.357 and a relative viability (H3255; first compound 0.2 µM) of 0.578. The relative viability (H3255; first compound 0.6325 µM) was 0.618, the relative viability (H3255; first compound 2 µM) was 0.56 and the relative viability (H3255; first compound 6.325 µM) was 0.529. The relative viability (H3255; first compound 20 µM) was 0.293, the relative viability (NCI-H2087; first compound 0.2 µM) was 0.293 and the relative viability (NCI-H2087; first compound 0.6325 µM) was 0.227. For the same molecule, the relative viability (NCI-H2087; first compound 2 µM) was 0.197, the relative viability (NCI-H2087; first compound 6.325 µM) was 0.175 and the relative viability (NCI-H2087; first compound 20 µM) was 0.202. For the same molecule, the relative viability (NCI-H520; first compound 0.2 µM) was 0.625, the relative viability (NCI-H520; first compound 0.6325 µM) was 0.707 and the relative viability (NCI-H520; first compound 2 µM) was 0.652. The relative viability (NCI-H520; first compound 6.325 µM) was 0.529, the relative viability (NCI-H520; first compound 20 µM) was 0.289 and the relative viability (NCI-H2170; first compound 0.2 µM) was 0.859. It also gave a relative viability (NCI-H2170; first compound 0.6325 µM) of 1.01, a relative viability (NCI-H2170; first compound 2 µM) of 0.914 and a relative viability (NCI-H2170; first compound 6.325 µM) of 0.609. The relative viability (NCI-H2170; first compound 20 µM) was 0.368, the relative viability (A-427; first compound 0.2 µM) was 0.758 and the relative viability (A-427; first compound 0.6325 µM) was 0.737. For the same molecule, the relative viability (A-427; first compound 2 µM) was 0.77, the relative viability (A-427; first compound 6.325 µM) was 0.672 and the relative viability (A-427; first compound 20 µM) was 0.37. For the same molecule, the relative viability (SK-MES-1; first compound 0.2 µM) was 0.569, the relative viability (SK-MES-1; first compound 0.6325 µM) was 0.601 and the relative viability (SK-MES-1; first compound 2 µM) was 0.58. It also gave a relative viability (SK-MES-1; first compound 6.325 µM) of 0.518, a relative viability (SK-MES-1; first compound 20 µM) of 0.514 and a relative viability (SW 1573; first compound 0.2 µM) of 0.647. The relative viability (SW 1573; first compound 0.6325 µM) was 0.574, the relative viability (SW 1573; first compound 2 µM) was 0.553 and the relative viability (SW 1573; first compound 6.325 µM) was 0.361. It also gave a relative viability (SW 1573; first compound 20 µM) of 0.13, a relative viability (HCC-827; first compound 0.2 µM) of 0.501 and a relative viability (HCC-827; first compound 0.6325 µM) of 0.506. For the same molecule, the relative viability (HCC-827; first compound 2 µM) was 0.522, the relative viability (HCC-827; first compound 6.325 µM) was 0.384 and the relative viability (HCC-827; first compound 20 µM) was 0.443. For the same molecule, the relative viability (NCI-H2023; first compound 0.2 µM) was 0.505, the relative viability (NCI-H2023; first compound 0.6325 µM) was 0.562 and the relative viability (NCI-H2023; first compound 2 µM) was 0.52. The relative viability (NCI-H2023; first compound 6.325 µM) was 0.247, the relative viability (NCI-H2023; first compound 20 µM) was 0.0881 and the relative viability (NCI-H1793; first compound 0.2 µM) was 0.397. The relative viability (NCI-H1793; first compound 2 µM) was 0.409, the relative viability (NCI-H1793; first compound 6.325 µM) was 0.411 and the relative viability (NCI-H1793; first compound 20 µM) was 0.408. The relative viability (NCI-H358; first compound 0.2 µM) was 0.149, the relative viability (NCI-H358; first compound 0.6325 µM) was 0.15 and the relative viability (NCI-H358; first compound 2 µM) was 0.119. The relative viability (NCI-H358; first compound 6.325 µM) was 0.116, the relative viability (NCI-H358; first compound 20 µM) was 0.133 and the relative viability (NCI-H1993; first compound 0.2 µM) was 0.433. It also gave a relative viability (NCI-H1993; first compound 0.6325 µM) of 0.43, a relative viability (NCI-H1993; first compound 2 µM) of 0.511 and a relative viability (NCI-H1993; first compound 6.325 µM) of 0.448. The relative viability (NCI-H1993; first compound 20 µM) was 0.351, the relative viability (NCI-H1975; first compound 0.2 µM) was 0.366 and the relative viability (NCI-H1975; first compound 0.6325 µM) was 0.372. For the same molecule, the relative viability (NCI-H1975; first compound 2 µM) was 0.376, the relative viability (NCI-H1975; first compound 6.325 µM) was 0.208 and the relative viability (NCI-H1975; first compound 20 µM) was 0.123. For the same molecule, the relative viability (NCI-H1792; first compound 0.2 µM) was 0.4, the relative viability (NCI-H1792; first compound 0.6325 µM) was 0.376 and the relative viability (NCI-H1792; first compound 2 µM) was 0.456. The relative viability (NCI-H1792; first compound 6.325 µM) was 0.384, the relative viability (NCI-H1792; first compound 20 µM) was 0.325 and the relative viability (NCI-H1944; first compound 0.2 µM) was 0.386. It also gave a relative viability (NCI-H1944; first compound 0.6325 µM) of 0.462, a relative viability (NCI-H1944; first compound 2 µM) of 0.307 and a relative viability (NCI-H1944; first compound 6.325 µM) of 0.364. For the same molecule, the relative viability (NCI-H1944; first compound 20 µM) was 0.265, the relative viability (LOU-NH91; first compound 0.2 µM) was 0.795 and the relative viability (LOU-NH91; first compound 0.6325 µM) was 0.839. The relative viability (LOU-NH91; first compound 2 µM) was 0.646, the relative viability (LOU-NH91; first compound 6.325 µM) was 0.7 and the relative viability (LOU-NH91; first compound 20 µM) was 0.349. The relative viability (HCC-44; first compound 0.2 µM) was 1.05, the relative viability (HCC-44; first compound 0.6325 µM) was 1.07 and the relative viability (HCC-44; first compound 2 µM) was 1.06. It also gave a relative viability (HCC-44; first compound 6.325 µM) of 1.13, a relative viability (HCC-44; first compound 20 µM) of 0.304 and a relative viability (LXF-289; first compound 0.2 µM) of 0.625. The relative viability (LXF-289; first compound 0.6325 µM) was 0.664, the relative viability (LXF-289; first compound 2 µM) was 0.705 and the relative viability (LXF-289; first compound 6.325 µM) was 0.607. For the same molecule, the relative viability (LXF-289; first compound 20 µM) was 0.221, the relative viability (SW 900; first compound 0.2 µM) was 0.831 and the relative viability (SW 900; first compound 0.6325 µM) was 0.886. For the same molecule, the relative viability (SW 900; first compound 2 µM) was 0.718, the relative viability (SW 900; first compound 6.325 µM) was 0.196 and the relative viability (SW 900; first compound 20 µM) was 0.21.
